Experimental data reported in article PMC7673371, “Real-Time Parallel Artificial Membrane Permeability Assay Based on Supramolecular Fluorescent Artificial Receptors” (Frontiers in Chemistry, 2020).
“Also recorded” adds a separate entry of the source.

Columns and labels:
[1] = RT-PAMPA with BE•CB7 as FAR, Avanti PAMPA lipid layer; assay type: in vitro ADME; conditions: berberine∙cucurbit[7]uril reporter pair, analyte in water
[2] = RT-PAMPA with MDAP∙CB8 fluorescent receptor and Avanti lipid
Protocol: Analyte solutions were prepared at 1 mmol/L in Millipore water or cosolvents as indicated. The MDAP∙CB8 reporter pair solution contained 5 μmol/L of MDAP and 6 μmol/L of CB8 that were dissolved in Millipore water. Two lipid solutions were used, including the commercial Avanti PAMPA lipid blend I and the self-prepared 2% DOPC in dodecane. To proceed with the assay, 5 μL of the lipid solution was pipetted to the microporous filter and allowed to impregnate evenly; 300 μL of the analyte solution was transferred to the lower donor well, and 100 μL of the reporter pair solution was transferred to the upper acceptor well. The acceptor plate was combined with the donor plate after the solutions had been loaded to define the start point of the assay. Fluorescence readings were taken on a Jasco FP-8500 fluorimeter equipped with a microplate reader with an excitation wavelength at 418 nm and monitored at an emission wavelength of 449 nm.
RT-PAMPA and fluorescence titration experiments were conducted on a Jasco FP-8500 fluorimeter with an attached microplate reader. For RT-PAMPA, the analytes were prepared at 1 mmol/l, while the FARs, including MDAP•CB8 and berberine•cucurbit[7]uril (BE•CB7), were prepared at 5 μmol/l.
In the first step, 5 μl of the lipid solution (Avanti PAMPA Blend I or 2% DOPC) was loaded on the microporous bottom of the acceptor well and allowed to disperse evenly. Subsequently, 100 μl of the FAR solution was loaded in the acceptor well, and 300 μl of the analyte solution was loaded into the donor well. Immediately after the solutions were loaded, the two plates were combined with the acceptor plate on top and the donor plate at the bottom. Fluorescence intensity was recorded at 449 nm with an excitation wavelength of 418 nm for the MDAP•CB8 experiments and recorded at 500 nm with an excitation wavelength of 342 nm for the BE•CB7 experiments. For the titration experiments, 2.5 ml of the 1 μmol/l MDAP•CB8 solution was placed into a 1-cm length quartz cuvette, followed by gradual addition of the indole solution. The solution was excited at 418 nm and the fluorescence spectra were recorded upon each addition of the indole solution. The fluoresc ence decrease at 449 nm was fitted with a 1:l binding model in order to obtain the binding constants of the MDAP•CB8•indole […]
2 Blank control experiments […]
5 Calculation of permeability
The effective permeability (Pe) of an analyte was calculated with the below equation (Wohnsland and […]
logP = log {−C × ln (1 − [analyte]acceptor )}
Based on the principle of the RT-PAMPA, the concentration of analyte in the acceptor well ([analyte]acceptor) and the concentration at equilibrium ([analyte]equilibrium) were obtained with the below equations, with the knowledge of the fluorescence intensity of the acceptor well and the binding constant of the ternary MDAP•CB8•analyte complex. It should be noted that the retention of analyte in the lipid layer was not taken into account.
[analyte]acceptor = [analyte]complex + [analyte]free
= IA − IG × [G ] + IA − IG […]
[analyte] = A G × [G ] + IGA − IG […]
IA: fluorescence intensity of the acceptor well at the chosen time point; IG: initial fluorescence intensity of the acceptor well;
IGA: fluorescence intensity of the ternary complex;
[G0]: initial concentration of FAR in the acceptor well;
[A0]: initial concentration of analyte in the donor well;
VA: volume of the solution in the acceptor well;
VD: volume of the solution in the donor well;
Ka: binding constant of the ternary MDAP•CB8•analyte complex.

[3] = not told; cited from earlier work
[4] = RT-PAMPA with MDAP∙CB8 fluorescent receptor and 2% DOPC lipid; assay type: in vitro ADME; conditions: RT-PAMPA conditions, 2% DOPC in dodecane
Protocol: with an attached microplate reader.
Subsequently, 100 μl of the
Fluorescence intensity was recorded at 449 nm
For the titration experiments,
gradual addition of the indole solution.
were recorded upon each addition of the indole solution. The fluoresc ence decrease at 449 nm was
2 Blank control experiments

[5] = 1 mmol/L analyte in donor well, MDAP∙CB8 in acceptor well, Avanti lipid, compared with absence of analyte
[6] = RT-PAMPA, fast = sharp fluorescence drop in initial several minutes, slow = response on time scale of several hours

**Q.** For OC12CC3CC(CC(C3)C1)C2 [1-adamantanol], which “fluorescence response indicative of effective permeation” value [1] is on record?
**A.** strong fluorescence response

**Q.** Which “fluorescence response indicative of analyte permeation through the lipid layer” value [2, 5] does the source give for N[C@@H](Cc1ccccc1)C(=O)O [L-Phenylalanine] here?
**A.** no significant fluorescence response

**Q.** Which “fluorescence response indicative of analyte permeation through the lipid layer” value ([2]; PAMPA) does the source give for NC(=O)[C@@H](N)Cc1c[nH]c2ccccc12 [L-tryptophanamide] here?
**A.** significant fluorescence responses

**Q.** What about the “permeation characteristics (fast or slow) from the permeation curves” value (from here on “permeation characteristics”) ([2]; PAMPA) of the same compound?
**A.** slowly permeating

**Q.** What about the “permeability coefficient (logPe)” value [3] of the same compound?
**A.** −5.56

**Q.** For O=c1ccc2ccccc2o1 [coumarin], which “fluorescence response indicative of analyte permeation through the lipid layer” value [2, 5] is on record?
**A.** significant fluorescence responses

**Q.** What about the “permeation characteristics” value [2, 6] of the same compound?
**A.** Fast permeation

**Q.** Which “fluorescence response indicative of analyte permeation through the lipid layer” value [2, 5] does the source give for CN(C)CCC=C1c2ccccc2COc2ccccc21 [doxepin] here?
**A.** no significant fluorescence response

**Q.** With c1ccc2[nH]ccc2c1 [indole] as the compound, how does the “fluorescence response indicative of analyte permeation through the lipid layer” value [2, 5] read?
**A.** significant fluorescence responses

**Q.** What about the “permeation characteristics” value [2, 6] of the same compound?
**A.** Fast permeation

**Q.** And the “log Pe” value ([2]; indole 0.010 mmol/l, time 0.15 h)?
**A.** –4.55

**Q.** And the “log Pe” value ([2]; indole 0.010 mmol/l, time 0.30 h)?
**A.** –4.67

**Q.** What about the “log Pe” value ([2]; indole 0.010 mmol/l, time 0.45 h) of the same compound?
**A.** –4.59

**Q.** And the “log Pe” value ([2]; indole 0.010 mmol/l, time 0.58 h)?
**A.** –4.52

**Q.** And the “log Pe” value ([2]; indole 0.010 mmol/l, time 0.73 h)?
**A.** –4.53

**Q.** What about the “log Pe” value ([2]; indole 0.010 mmol/l, time 0.87 h) of the same compound?
**A.** –4.52

**Q.** What about the “log Pe” value ([2]; indole 0.010 mmol/l, time 1.43 h) of the same compound?
**A.** –4.55

**Q.** What about the “log Pe” value ([2]; indole 0.010 mmol/l, time 1.85 h) of the same compound?
**A.** –4.59

**Q.** What about the “log Pe” value ([2]; indole 0.1 mmol/l, time 0.15 h) of the same compound?
**A.** –4.70

**Q.** And the “log Pe” value ([2]; indole 0.1 mmol/l, time 0.30 h)?
**A.** –4.72

**Q.** What about the “log Pe” value ([2]; indole 0.1 mmol/l, time 0.45 h) of the same compound?
**A.** –4.74

**Q.** What about the “log Pe” value ([2]; indole 0.1 mmol/l, time 0.58 h) of the same compound?
**A.** –4.73

**Q.** What about the “log Pe” value ([2]; indole 0.1 mmol/l, time 0.73 h) of the same compound?
**A.** –4.74

**Q.** And the “log Pe” value ([2]; indole 0.1 mmol/l, time 0.87 h)?
**A.** –4.72

**Q.** What about the “log Pe” value ([2]; indole 0.1 mmol/l, time 1.43 h) of the same compound?
**A.** –4.81

**Q.** What about the “log Pe” value ([2]; indole 0.1 mmol/l, time 1.85 h) of the same compound?
**A.** –4.87

**Q.** What about the “log Pe” value ([2]; indole 1.0 mmol/l, time 0.15 h) of the same compound?
**A.** –5.15

**Q.** And the “log Pe” value ([2]; indole 1.0 mmol/l, time 0.30 h)?
**A.** –5.09

**Q.** What about the “log Pe” value ([2]; indole 1.0 mmol/l, time 0.45 h) of the same compound?
**A.** –5.17

**Q.** And the “log Pe” value ([2]; indole 1.0 mmol/l, time 0.58 h)?
**A.** –5.21

**Q.** And the “log Pe” value ([2]; indole 1.0 mmol/l, time 0.73 h)?
**A.** –5.28

**Q.** And the “log Pe” value ([2]; indole 1.0 mmol/l, time 0.87 h)?
**A.** –5.32

**Q.** What about the “log Pe” value ([2]; indole 1.0 mmol/l, time 1.43 h) of the same compound?
**A.** –5.49

**Q.** What about the “log Pe” value ([2]; indole 1.0 mmol/l, time 1.85 h) of the same compound?
**A.** –5.59

**Q.** With Cc1c(OCC(F)(F)F)ccnc1C[S+]([O-])c1nc2ccccc2[nH]1 (stereo not shown) [lansoprazole] as the compound, how does the “fluorescence response indicative of analyte permeation through the lipid layer” value [2, 5] read?
**A.** significant fluorescence responses

**Q.** What about the “permeation characteristics” value [2, 6] of the same compound?
**A.** slowly permeating

**Q.** For CCC(=O)Nc1ccc(Cl)c(Cl)c1 [propanil], which “fluorescence response indicative of analyte permeation through the lipid layer” value [2, 5] is on record?
**A.** significant fluorescence responses

**Q.** And the “permeation characteristics” value [2, 6]?
**A.** Fast permeation

**Q.** For NCCc1c[nH]c2ccc(O)cc12 [serotonin], which “fluorescence response indicative of analyte permeation through the lipid layer” value [2, 5] is on record?
**A.** no significant fluorescence response

**Q.** Which “influence of organic cosolvent in donor well on permeation curves” value ([2]; 0.1 mmol/L in 2 and 20% ethanol, initial hour) does the source give for c1ccc2[nH]c(-c3cscn3)nc2c1 [thiabendazole] here?
**A.** overlapped

**Q.** And the “fluorescence response indicative of analyte permeation through the lipid layer” value [2, 5]?
**A.** significant fluorescence responses

**Q.** What about the “permeation characteristics” value [2, 6] of the same compound?
**A.** Fast permeation

**Q.** For O=c1ccc2ccc(O)cc2o1 [umbelliferone], which “fluorescence response indicative of analyte permeation through the lipid layer” value [2, 5] is on record?
**A.** significant fluorescence responses; also recorded: appreciable permeability

**Q.** What about the “permeation characteristics” value [2, 6] of the same compound?
**A.** slowly permeating

**Q.** And the “permeation through the 2% DOPC lipid” value [4]?
**A.** did not permeate to a significant extent

**Q.** With CN(C)CCc1c[nH]c2ccc(C[C@H]3COC(=O)N3)cc12 [zolmitriptan] as the compound, how does the “fluorescence response indicative of analyte permeation through the lipid layer” value [2, 5] read?
**A.** no significant fluorescence response
